Laboratory results taken from patent publication US20260199444A1, “VACCINES AGAINST PROTEIN TYROSINE PHOSPHATASE RECEPTOR TYPE Z1 (PTPRZ1) -POSITIVE TUMORS” (ALTEVAX, priority 2022, published 2026).

Legend:
HLA-A2/DR1 mice [1] = assay: Melanin-based vaccine (plus CpG-28) subcutaneous immunization, CD8 T-cell response by IFNg-SFC count of re-stimulated splenocytes; assay type: in vivo; settings: for T-cell Immune response: mean +/− SEM (number of mice): peptide 10 μg/mouse with synthetic melanin (peptide/L-Dopa 1/4) and CpG-28 10 μg/mouse, subcutaneous, day 8, splenocytes re-stimulated with the corresponding MHC class I epitope; for immune response after immunization (in words): melanin-based vaccine, HLA-A2/DR1 mice
Source text: For the purpose of selecting a relevant PTPRZ1 antigen to be used in human patients, several peptides containing various PTPRZ1 immune epitopes were screened. The immunogenicity of these various peptides were screened by vaccinations in HLA-A2/DR1 mice (also known as Surel1 model). HLA-A2/DR1 mice are transgenic mice mimicking the human's immune system. As a vaccine procedure for screening, a melanin-based vaccine was used, as described in WO2021165306.
Using a melanin-based vaccine in HLA-A2/DR1 mice, these epitopes were then screened using peptides (SEQ ID NO: 5 to SEQ ID NO: 8) containing the epitope and an additional cysteine at the NH2-terminal, as it was disclosed in WO2021165306 that this modification increases the efficacy of melanin-based vaccine.
For immunizations, L-Dopa (0.8 mg/ml) underwent an oxidative polymerization at pH 8.5 in aerobic conditions for 2 hours at 60° C. The reaction mixture was then filtered on a 10 kDa filter, and the retentate containing the synthetic melanin was resuspended in phosphate buffer. Peptides (10 μg/mouse) containing the epitopes (underlined) were then added (at the weight ratio peptide/L-Dopa=1/4) and the mixtures were used for subcutaneous immunizations in mice. Phosphorothioate oligonucleotide CpG-28 (5′-[…], SEQ ID NO: 16) was added to vaccine formulations (10 μg/mouse) just before the immunizations. Mice were sacrificed on day 8 and the CD8 T-cell response was performed as described in Carpentier; 2017. Briefly, splenocytes were re-stimulated in vitro with the corresponding MHC class I-epitope (non-conjugated to melanin) and the numbers of IFNg-SFCs (Spot forming cells) were measured and expressed as Mean+/−S.E.M.

transgenic SURE mice = assay: Cross reactivity of T-cell responses after immunization with SEQ 14, splenocytes re-stimulated with SEQ 14 or native epitope SEQ 4; assay type: in vivo; settings: immunized with SEQ ID NO: 14, day 8, re-stimulation 18 hours, 5 μg/ml to 0.3 ng/ml, FIG. 1
Method: FIG. 1: cross reactivity of T-cell responses obtained after immunizations with SEQ 14 in transgenic SURE mice. Mice were immunized against SEQ 14, as described in table 1, and sacrificed on day 8. The splenocytes (5.10^5 cells/well) were re-stimulated in vitro for 18 hours with either SEQ 14 or the native epitope SEQ 4 (both non-conjugated to melanin), at various concentrations (5 μg/ml to 0.3 ng/ml) and the numbers of IFNg-SFCs (Spot forming cells) were measured after a 18-hour incubation (representative experiments from 3 experiments)
Mice were thus immunized with SEQ ID NO: 14, and it was checked whether T-cell response triggered by SEQ ID NO: 14 was able to similarly recognize the mutated epitote SEQ ID NO: 15 and the native epitope SEQ ID NO: 4.

HLA-A2/DR1 mice [2] = assay: Peptide plus CpG-28 without melanin, subcutaneous immunization, CD8 T-cell response by IFNg-SFC count of re-stimulated splenocytes; assay type: in vivo; settings: for T-cell Immune response: mean +/− SEM (number of mice): peptide 10 μg/mouse with CpG-28 10 μg/mouse, no melanin, subcutaneous, day 8, splenocytes re-stimulated with the corresponding MHC class I epitope
Method: In a different adjuvant formulation, SEQ ID NO: 4 and SEQ ID NO: 14 were studied in HLA-A2/DR1 mice.
The peptides (10 μg/mouse) were mixed with the TLR9 agonist CpG-28 (SEQ ID NO: 16) (10 μg/mouse) and the mixtures were used for subcutaneous immunizations in mice. Mice were sacrificed on day 8 and the CD8 T-cell response was performed as described in Carpentier; 2017. Briefly, splenocytes were re-stimulated in vitro with the corresponding MHC class I-epitope (non-conjugated to melanin) and the numbers of IFNg-SFCs (Spot forming cells) were measured and expressed as Mean+/−S.E.M.

patients = settings: glioblastoma patients, Hilf et al (2019); cited from earlier work

Substance	T-cell Immune response: mean +/− SEM (number of mice) (HLA-A2/DR1 mice [1])	other results
CVLDSHIHAYVNALLIPGPAGK [SEQ ID NO: 6]	7 +/− 5 (n = 4) IFNg-SFCs	
CKVFAGIPTV [SEQ ID NO: 5]	288 +/− 37 (n = 8) IFNg-SFCs	immune response after immunization (in words) (HLA-A2/DR1 mice [1]): powerful immune response
KP MIWEHNVEV (KPMIWEHNVEV) [SEQ ID NO: 13]	80 +/− 34 (n = 7) IFNg-SFCs	
H MIWEHNVEV (HMIWEHNVEV) [SEQ ID NO: 11]	60 +/− 25 (n = 7) IFNg-SFCs	
KK KIWEHNVEV (KKKIWEHNVEV) [SEQ ID NO: 14]	287 +/− 26 (n = 8) IFNg-SFCs	reactivity against the native epitope (SEQ ID NO: 4) of lymphocytes primed with the modified epitope, compared with reactivity against the modified epitope (transgenic SURE mice): even higher; immune response after immunization (in words) (HLA-A2/DR1 mice [1]): strong CD8 immune response; T-cell Immune response: mean +/− SEM (number of mice) (HLA-A2/DR1 mice [2]): 25 +/− 13 (n = 7) IFNg-SFCs; CD8 immune response after immunization without melanin (in words) (HLA-A2/DR1 mice [2]; peptide with CpG-28, no melanin, compared with SEQ ID NO: 4): more potent
KIWEHNVEV [SEQ ID NO: 15]	118 +/− 26 (n = 7) IFNg-SFCs	
C AIIDGVESV (CAIIDGVESV) [SEQ ID NO: 7]	3 +/− 1 (n = 4) IFNg-SFCs	
P MIWEHNVEV (PMIWEHNVEV) [SEQ ID NO: 10]	40 +/− 15 (n = 7) IFNg-SFCs	
C MIWEHNVEV (CMIWEHNVEV) [SEQ ID NO: 8]	24 +/− 8 (n = 8) IFNg-SFCs	immune response after immunization (in words) (HLA-A2/DR1 mice [1]): able to trigger an immune response; immune response after immunization (in words) (HLA-A2/DR1 mice [1]; listed as SEQ 8): weak
MIWEHNVEV [SEQ ID NO: 4, reference compound]	3 +/− 1 (n = 7) IFNg-SFCs	reactive CD8+ T cells against the peptide after immunization of patients (patients): found in some patients; T-cell Immune response: mean +/− SEM (number of mice) (HLA-A2/DR1 mice [2]): 11 +/− 4 (n = 7) IFNg-SFCs
PK MIWEHNVEV (PKMIWEHNVEV) [SEQ ID NO: 12]	61 +/− 30 (n = 7) IFNg-SFCs	
